Data: US20090192176A1, “1H-PYRAZOLO[3,4-D]PYRIMIDINE, PURINE, 7H-PURIN-8(9H)-ONE, 3H-[1,2,3]TRIAZOLO[4,5-D]PYRIMIDINE, AND THIENO[3,2-D]PYRIMIDINE COMPOUNDS, THEIR USE AS mTOR KINASE AND PI3 KINASE INHIBITORS, AND THEIR SYNTHESES” (Wyeth, priority 2008, published 2009)

Columns and labels:
[1] = tested on: acute lymphoblastic leukemia; details: NOS/SCID xenograft mouse model of acute lymphoblastic leukemia; cited from earlier work
MDA468 = assay: In vitro cell culture growth assay (MTS); type: cell-based; details: Homo sapiens, 72 h, breast line MDA468, three days after drug treatment
Protocol: In Vitro Cell Culture Growth Assay Methods:
Human tumor cell lines used include prostate lines LNCap and PC3MM2, breast lines MDA468, MCF7, renal line HTB44 (A498), colon line HCT116, and ovarian line OVCAR3. Cells were plated in 96-well culture plates. One day following plating, the inhibitors were added to cells. Three days after drug treatment, viable cell densities were determined by metabolic conversion (by viable cells) of the dye MTS, a well-established cell proliferation assay. The assays were performed using an assay kit purchased from Promega Corp. (Madison, Wis.) following the protocol supplied with the kit. The MTS assay results were read in a 96-well plate reader by measuring absorbance at 490 nm. The effect of each treatment was calculated as percent of control growth relative to the vehicle-treated cells grown in the same culture plate. The drug concentration that conferred 50% inhibition of growth was determined as IC50 (μg/ml).

LNCap = assay: In vitro cell culture growth assay (MTS); type: cell-based; details: Homo sapiens, 72 h, prostate line LNCap, three days after drug treatment
Human mTOR = molecular target: T1, Human mTOR (Homo sapiens, UniProt P42345); assay: mTOR kinase assay (DELFIA format, purified enzyme); type: biochemical; details: His6-S6K substrate, read-out: TOR Kinase IC50
T1 construct: FLAG

PI3 Kinase α = PI3 Kinase α (Homo sapiens, UniProt P42336); assay: Fluorescence polarization assay for PI3K; type: biochemical
Sequence of PI3 Kinase α (P42336 whole entry): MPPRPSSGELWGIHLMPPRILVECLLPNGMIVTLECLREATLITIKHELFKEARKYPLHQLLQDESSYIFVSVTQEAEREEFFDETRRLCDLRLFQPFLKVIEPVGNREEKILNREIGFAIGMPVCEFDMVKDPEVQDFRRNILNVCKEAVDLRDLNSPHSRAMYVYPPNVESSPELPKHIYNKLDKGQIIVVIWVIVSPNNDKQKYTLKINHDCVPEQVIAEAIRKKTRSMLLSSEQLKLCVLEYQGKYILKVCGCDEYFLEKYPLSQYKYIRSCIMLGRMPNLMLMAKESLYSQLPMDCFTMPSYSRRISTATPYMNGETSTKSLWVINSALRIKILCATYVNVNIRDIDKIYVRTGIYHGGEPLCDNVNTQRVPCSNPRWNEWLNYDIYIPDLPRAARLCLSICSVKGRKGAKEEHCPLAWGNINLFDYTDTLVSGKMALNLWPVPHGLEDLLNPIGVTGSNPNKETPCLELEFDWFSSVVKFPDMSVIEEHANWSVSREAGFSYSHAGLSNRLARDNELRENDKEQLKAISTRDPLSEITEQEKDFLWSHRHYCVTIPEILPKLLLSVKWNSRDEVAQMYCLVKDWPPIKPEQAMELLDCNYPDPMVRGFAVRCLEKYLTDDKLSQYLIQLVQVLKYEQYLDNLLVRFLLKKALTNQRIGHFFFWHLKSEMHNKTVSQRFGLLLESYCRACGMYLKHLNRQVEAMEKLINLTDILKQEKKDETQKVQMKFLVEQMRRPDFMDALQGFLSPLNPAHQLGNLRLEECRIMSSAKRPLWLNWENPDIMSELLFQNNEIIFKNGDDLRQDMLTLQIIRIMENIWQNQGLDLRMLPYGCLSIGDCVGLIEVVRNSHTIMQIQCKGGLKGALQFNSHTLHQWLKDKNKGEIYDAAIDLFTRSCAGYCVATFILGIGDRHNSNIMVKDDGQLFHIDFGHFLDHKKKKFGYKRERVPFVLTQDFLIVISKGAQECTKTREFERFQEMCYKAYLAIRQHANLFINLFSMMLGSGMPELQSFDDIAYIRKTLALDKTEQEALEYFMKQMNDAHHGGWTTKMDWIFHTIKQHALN
Sequence of PI3 Kinase α (P27986 whole entry partner): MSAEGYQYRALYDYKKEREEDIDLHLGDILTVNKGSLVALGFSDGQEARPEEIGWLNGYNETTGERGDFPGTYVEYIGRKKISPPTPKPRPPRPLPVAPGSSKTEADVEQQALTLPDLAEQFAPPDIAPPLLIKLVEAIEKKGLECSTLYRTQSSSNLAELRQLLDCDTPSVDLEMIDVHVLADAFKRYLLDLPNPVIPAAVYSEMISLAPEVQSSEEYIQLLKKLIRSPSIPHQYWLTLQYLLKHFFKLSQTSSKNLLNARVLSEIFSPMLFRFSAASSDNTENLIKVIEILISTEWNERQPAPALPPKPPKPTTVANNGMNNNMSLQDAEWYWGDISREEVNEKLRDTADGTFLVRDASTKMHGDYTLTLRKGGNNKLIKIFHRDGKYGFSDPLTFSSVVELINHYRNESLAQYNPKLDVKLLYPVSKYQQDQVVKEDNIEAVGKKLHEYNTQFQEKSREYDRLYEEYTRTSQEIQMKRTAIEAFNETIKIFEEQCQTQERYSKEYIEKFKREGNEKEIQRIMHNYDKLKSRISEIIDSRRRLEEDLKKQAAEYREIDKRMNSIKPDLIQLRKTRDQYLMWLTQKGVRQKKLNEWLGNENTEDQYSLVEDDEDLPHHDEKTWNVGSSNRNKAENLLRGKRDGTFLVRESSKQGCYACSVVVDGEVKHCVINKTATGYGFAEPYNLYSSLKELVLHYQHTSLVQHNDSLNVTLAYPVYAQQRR

PI3 Kinase γ = PI3 Kinase γ (Homo sapiens, UniProt P48736); assay: Fluorescence polarization assay for PI3K; type: biochemical
Sequence of PI3 Kinase γ (P48736 whole entry): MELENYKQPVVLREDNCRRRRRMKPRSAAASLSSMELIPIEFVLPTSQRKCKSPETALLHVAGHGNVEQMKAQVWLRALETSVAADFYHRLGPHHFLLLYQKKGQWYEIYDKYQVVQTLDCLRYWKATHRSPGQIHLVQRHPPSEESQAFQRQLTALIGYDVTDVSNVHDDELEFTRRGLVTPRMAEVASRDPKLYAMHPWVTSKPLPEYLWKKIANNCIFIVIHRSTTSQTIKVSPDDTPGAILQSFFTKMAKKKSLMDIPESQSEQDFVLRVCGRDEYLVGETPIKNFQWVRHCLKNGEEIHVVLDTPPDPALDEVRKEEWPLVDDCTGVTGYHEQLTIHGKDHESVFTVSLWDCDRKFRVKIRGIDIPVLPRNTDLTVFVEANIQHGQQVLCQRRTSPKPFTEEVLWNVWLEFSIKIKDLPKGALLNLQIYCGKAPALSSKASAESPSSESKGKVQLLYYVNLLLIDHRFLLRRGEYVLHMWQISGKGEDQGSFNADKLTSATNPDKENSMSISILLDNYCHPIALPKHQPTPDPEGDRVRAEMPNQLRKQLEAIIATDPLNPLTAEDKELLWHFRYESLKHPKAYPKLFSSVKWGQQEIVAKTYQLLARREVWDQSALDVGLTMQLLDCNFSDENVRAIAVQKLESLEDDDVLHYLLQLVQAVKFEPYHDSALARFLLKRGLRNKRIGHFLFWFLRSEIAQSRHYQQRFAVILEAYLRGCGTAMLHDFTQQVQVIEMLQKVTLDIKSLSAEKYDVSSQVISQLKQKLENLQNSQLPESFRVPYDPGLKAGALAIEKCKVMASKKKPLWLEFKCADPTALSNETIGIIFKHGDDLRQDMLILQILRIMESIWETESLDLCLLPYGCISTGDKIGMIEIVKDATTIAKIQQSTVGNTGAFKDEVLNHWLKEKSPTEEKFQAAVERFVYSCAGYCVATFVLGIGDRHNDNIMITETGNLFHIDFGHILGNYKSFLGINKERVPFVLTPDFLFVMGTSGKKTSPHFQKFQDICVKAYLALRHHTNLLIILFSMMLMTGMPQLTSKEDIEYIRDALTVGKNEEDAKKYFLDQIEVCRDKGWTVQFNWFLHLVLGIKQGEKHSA

CO[C@H]1C[C@@H]2CC[C@@H](C)[C@@](O)(O2)C(=O)C(=O)N2CCCC[C@H]2C(=O)O[C@H]([C@H](C)C[C@@H]2CC[C@@H](OC(=O)C(C)(CO)CO)[C@H](OC)C2)CC(=O)[C@H](C)/C=C(\C)[C@@H](O)[C@@H](OC)C(=O)[C@H](C)C[C@H](C)/C=C/C=C/C=C/1C [Torisel]
activity in xenograft model [1]: active

O=C(Nc1ccc(-c2nc(C3=CCOCC3)c3cnn(CC(F)(F)F)c3n2)cc1)OCCO [Compound 10a, 2-hydroxyethyl {4-[4-(3,6-dihydro-2H-pyran-4-yl)-1-(2,2,2-trifluoroethyl)-1H-pyrazolo[3,4-d]pyrimidin-6-yl]phenyl}carbamate]
IC50 (MDA468): 1200 nM
IC50 (LNCap): 170 nM
IC50 (Human mTOR): 3550 nM
IC50 (PI3 Kinase α): 696 nM
IC50 (PI3 Kinase γ): 3360 nM

O=C(NCCF)Nc1ccc(-c2nc(C3=CCOCC3)c3cnn(CC(F)(F)F)c3n2)cc1 [Compound 7, 1-{4-[4-(3,6-dihydro-2H-pyran-4-yl)-1-(2,2,2-trifluoroethyl)-1H-pyrazolo[3,4-d]pyrimidin-6-yl]phenyl}-3-(2-fluoroethyl)urea]
IC50 (MDA468): 220 nM
IC50 (LNCap): 72 nM
IC50 (Human mTOR): 1.4 nM
IC50 (PI3 Kinase α): 2330 nM
IC50 (PI3 Kinase γ): 1010 nM

CNC(=O)Nc1ccc(-c2nc(C3=CCOCC3)c3cnn(C4CCN(Cc5cccnc5)CC4)c3n2)cc1 [Compound 4, 1-(4-{4-(3,6-dihydro-2H-pyran-4-yl)-1-[1-(pyridin-3-ylmethyl)piperidin-4-yl]-1H-pyrazolo[3,4-d]pyrimidin-6-yl}phenyl)-3-methylurea]
IC50 (MDA468): 4200 nM
IC50 (LNCap): 900 nM
IC50 (Human mTOR): 17 nM
IC50 (PI3 Kinase α): 2820 nM
IC50 (PI3 Kinase γ): 3220 nM
